According to patent US6737383B1, “Herbicidal oxadiazolidines” (priority 1999, dated 2004):

Experiments:
bamyardgrass = experiment: Test B flood test barnyardgrass; type: in vivo, Echinochloa crus-galli; details: for Plant response rating, Barnyardgrass (0 to 10 scale, 0 is no effect, 10 is complete control): Rate 62 g/ha
Description: At the same time, these crop and weed species were also treated with postemergence applications of test chemicals formulated in the same manner. Plants ranged in height from 2 to 18 cm (1- to 4-leaf stage) for postemergence treatments. Plant species in the flood test consisted of rice (Oryza sativa), smallflower flatsedge (Cyperus difformis), duck salad (Heteranthera limosa) and bamyardgrass (Echinochloa crus-galli) grown to the 2-leaf stage for testing. Treated plants and controls were maintained in a greenhouse for twelve to sixteen days, after which all species were compared to controls and visually evaluated. Plant response ratings, summarized in Table B, are based on a scale of 0 to 10 where 0 is no effect and 10 is complete control. A dash (−) response means no test result.

smallflower flatsedge = experiment: Test B flood test smallflower flatsedge; type: in vivo, Cyperus difformis; details: for Plant response rating, S. Flatsedge (0 to 10 scale, 0 is no effect, 10 is complete control): Rate 62 g/ha
How it was run: (§1)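 Flood test on plants grown to the 2-leaf stage; treated plants kept in greenhouse twelve to sixteen days, then visually rated against controls on a 0 (no effect) to 10 (complete control) scale.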

duck salad = experiment: Test B flood test duck salad; type: in vivo, Heteranthera limosa; details: for Plant response rating, Ducksalad (0 to 10 scale, 0 is no effect, 10 is complete control): Rate 62 g/ha
How it was run: as §1

rice = experiment: Test B flood test rice; type: in vivo, Oryza sativa; details: Pre-emergence
How it was run: as §1

bedstraw = experiment: Test B pre/postemergence bedstraw; type: in vivo, Galium aparine; details: Preemergence
How it was run: (§2)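 Herbicidal effect was estimated by eye on a ten-point control scale after plants spent twelve to sixteen days in a greenhouse following soil or foliar treatment. Foliar sprays targeted plants at one to four leaves; all doses were formulated in a non-phytotoxic solvent with surfactant.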

wheat = experiment: Test B pre/postemergence wheat; type: in vivo, Triticum aestivum; details: Preemergence
How it was run: as §2

corn = experiment: Test B pre/postemergence corn; type: in vivo, Zea mays; details: Preemergence
How it was run: as §2

pigweed = experiment: Test B pre/postemergence pigweed; type: in vivo, Amaranthus retroflexus; details: Preemergence
How it was run: as §2

morningglory = experiment: Test B pre/postemergence morningglory; type: in vivo, Ipomoea hederacea; details: Preemergence
How it was run: as §2

wild oat = experiment: Test B pre/postemergence wild oat; type: in vivo, Avena fatua; details: Preemergence
How it was run: as §2

velvetleaf = experiment: Test B pre/postemergence velvetleaf; type: in vivo, Abutilon theophrasti; details: Preemergence
How it was run: as §2

sugar beet = experiment: Test B pre/postemergence sugar beet; type: in vivo, Beta vulgaris; details: Preemergence
How it was run: as §2

giant foxtail = experiment: Test B pre/postemergence giant foxtail; type: in vivo, Setaria faberii; details: Preemergence
How it was run: as §2

cocklebur = experiment: Test B pre/postemergence cocklebur; type: in vivo, Xanthium strumarium; details: Preemergence
How it was run: as §2

soybean = experiment: Test B pre/postemergence soybean; type: in vivo, Glycine max; details: Preemergence
How it was run: as §2

purple nutsedge = experiment: Test B pre/postemergence purple nutsedge; type: in vivo, Cyperus rotundus; details: Preemergence
How it was run: as §2

surinam grass = experiment: Test B pre/postemergence surinam grass; type: in vivo, Brachiaria decumbens; details: Preemergence
How it was run: as §2

crabgrass = experiment: Test B pre/postemergence crabgrass; type: in vivo, Digitaria sanguinalis; details: Preemergence
How it was run: as §2

rape = experiment: Test B pre/postemergence rape; type: in vivo, Brassica napus; details: Preemergence
How it was run: as §2

blackgrass = experiment: Test B pre/postemergence blackgrass; type: in vivo, Alopecurus myosuroides; details: Preemergence
How it was run: as §2

[1] = flood test species, Pre-emergence, visual evaluation after twelve to sixteen days
[2] = Rate 125 g/ha, Pre-emergence, flood test species, scale 0 to 10 where 0 is no effect and 10 is complete control
[3] = Rate 250 g/ha, Pre-emergence, flood-test species, scale 0 to 10, 0 is no effect, 10 is complete control
[4] = Rate 500 g/ha, Pre-emergence, flood test species, scale 0 to 10 (0 no effect, 10 complete control)
[5] = Rate 62 g/ha, scale of 0 to 10 where 0 is no effect and 10 is complete control
[6] = Rate 125 g/ha, scale of 0 to 10 where 0 is no effect and 10 is complete control
[7] = Rate 250 g/ha, scale 0 to 10 (0 no effect, 10 complete control)
[8] = Rate 500 g/ha, scale of 0 to 10 where 0 is no effect and 10 is complete control
[9] = Rate 125 g/ha, under heading Pre-emergence, flood test species, visual evaluation after twelve to sixteen days
[10] = Rate 250 g/ha, Pre-emergence (flood test species), scale 0 to 10, 0 is no effect, 10 is complete control
[11] = Rate 500 g/ha, Pre-emergence section of Table B, 0 to 10 scale (0 no effect, 10 complete control)

Cc1cc(C)n(Cn2c(=O)on(C(=O)N(c3ccccc3)C(C)C)c2=O)n1 [Compound 346]
Plant response rating, Barnyardgrass (0 to 10 scale, 0 is no effect, 10 is complete control) (bamyardgrass; [1]): 0 | Barnyardgrass plant response rating (bamyardgrass; [2]): 0 | Barnyardgrass plant response rating (bamyardgrass; [3]): 0 | Barnyardgrass plant response rating (bamyardgrass; [4]): 0 | Plant response rating, S. Flatsedge (0 to 10 scale, 0 is no effect, 10 is complete control) (smallflower flatsedge; [1]): 0 | S. Flatsedge plant response rating (smallflower flatsedge; [2]): 0 | S. Flatsedge plant response rating (smallflower flatsedge; [3]): 0 | S. Flatsedge plant response rating (smallflower flatsedge; [4]): 0 | Plant response rating, Ducksalad (0 to 10 scale, 0 is no effect, 10 is complete control) (duck salad; [1]): 0 | Ducksalad plant response rating (duck salad; [2]): 0 | Ducksalad plant response rating (duck salad; [3]): 0 | Ducksalad plant response rating (duck salad; [4]): 0 | Plant response rating, Rice (0 to 10 scale, 0 is no effect, 10 is complete control) (rice; Rate 62 g/ha, flood test species, visual evaluation after twelve to sixteen days): 0 | Rice plant response rating (rice; Rate 125 g/ha, flood test species, scale 0 to 10 where 0 is no effect and 10 is complete control): 0 | Rice plant response rating (rice; Rate 250 g/ha, flood-test species, scale 0 to 10, 0 is no effect, 10 is complete control): 0 | Rice plant response rating (rice; Rate 500 g/ha, flood test species, scale 0 to 10 (0 no effect, 10 complete control)): 0

CCCCCCn1c(=O)on(C(=O)N(c2ccc(F)cc2F)C(C)C)c1=O [Compound 637]
Bedstraw plant response rating (bedstraw; [5]): 0 | Bedstraw plant response rating (bedstraw; [6]): 0 | Plant response rating, Bedstraw (bedstraw; [7]): 2 | Plant response rating, Bedstraw (bedstraw; [8]): 4 | Wheat plant response rating (wheat; [5]): 0 | Wheat plant response rating (wheat; [6]): 0 | Plant response rating, Wheat (wheat; [7]): 0 | Plant response rating, Wheat (wheat; [8]): 0 | Corn plant response rating (corn; [5]): 0 | Corn plant response rating (corn; [6]): 0 | Plant response rating, Corn (corn; [7]): 0 | Plant response rating, Corn (corn; [8]): 0 | Plant response rating, Barnyardgrass (0 to 10 scale, 0 is no effect, 10 is complete control) (bamyardgrass; [1]): 0 | Barnyardgrass plant response rating (0 to 10 scale, 0 is no effect, 10 is complete control) (bamyardgrass; [9]): 0 | Barnyardgrass plant response rating (bamyardgrass; [10]): 0 | Barnyardgrass plant response rating (bamyardgrass; [11]): 0 | Redroot pigweed plant response rating (pigweed; [5]): 4 | Redroot pigweed plant response rating (pigweed; [6]): 9 | Plant response rating, Redroot pigweed (pigweed; [7]): 7 | Plant response rating, Redroot pigweed (pigweed; [8]): 10 | Morningglory plant response rating (morningglory; [5]): 0 | Morningglory plant response rating (morningglory; [6]): 0 | Plant response rating, Morningglory (morningglory; [7]): 0 | Plant response rating, Morningglory (morningglory; [8]): 0 | Wild oats plant response rating (wild oat; [5]): 0 | Wild oats plant response rating (wild oat; [6]): 0 | Plant response rating, Wild oats (wild oat; [7]): 0 | Plant response rating, Wild oats (wild oat; [8]): 3 | Velvetleaf plant response rating (velvetleaf; [5]): 0 | Velvetleaf plant response rating (velvetleaf; [6]): 0 | Plant response rating, Velvetleaf (velvetleaf; [7]): 0 | Plant response rating, Velvetleaf (velvetleaf; [8]): 2 | Plant response rating, S. Flatsedge (0 to 10 scale, 0 is no effect, 10 is complete control) (smallflower flatsedge; [1]): 0 | S. Flatsedge plant response rating (0 to 10 scale, 0 is no effect, 10 is complete control) (smallflower flatsedge; [9]): 0 | S. Flatsedge plant response rating (smallflower flatsedge; [10]): 0 | S. Flatsedge plant response rating (smallflower flatsedge; [11]): 0 | Sugarbeets plant response rating (sugar beet; [5]): 0 | Sugarbeets plant response rating (sugar beet; [6]): 0 | Plant response rating, Sugarbeets (sugar beet; [7]): 3 | Plant response rating, Sugarbeets (sugar beet; [8]): 5 | Plant response rating, Ducksalad (0 to 10 scale, 0 is no effect, 10 is complete control) (duck salad; [1]): 0 | Ducksalad plant response rating (0 to 10 scale, 0 is no effect, 10 is complete control) (duck salad; [9]): 0 | Ducksalad plant response rating (duck salad; [10]): 0 | Ducksalad plant response rating (duck salad; [11]): 0 | Giant foxtail plant response rating (giant foxtail; [5]): 9 | Giant foxtail plant response rating (giant foxtail; [6]): 10 | Plant response rating, Giant foxtail (giant foxtail; [7]): 10 | Plant response rating, Giant foxtail (giant foxtail; [8]): 10 | Cocklebur plant response rating (cocklebur; [5]): 0 | Cocklebur plant response rating (cocklebur; [6]): 0 | Plant response rating, Cocklebur (cocklebur; [7]): 0 | Plant response rating, Cocklebur (cocklebur; [8]): 0 | Soybean plant response rating (soybean; [5]): 0 | Soybean plant response rating (soybean; [6]): 0 | Plant response rating, Soybean (soybean; [7]): 0 | Plant response rating, Soybean (soybean; [8]): 0 | Nutsedge plant response rating (purple nutsedge; [5]): 0 | Nutsedge plant response rating (purple nutsedge; [6]): 0 | Plant response rating, Nutsedge (purple nutsedge; [7]): 0 | Plant response rating, Nutsedge (purple nutsedge; [8]): 0 | B. signalgrass plant response rating (surinam grass; [5]): 0 | B. signalgrass plant response rating (surinam grass; [6]): 3 | Plant response rating, B. signalgrass (surinam grass; [7]): 8 | Plant response rating, B. signalgrass (surinam grass; [8]): 8 | Crabgrass plant response rating (crabgrass; [5]): 9 | Crabgrass plant response rating (crabgrass; [6]): 9 | Plant response rating, Crabgrass (crabgrass; [7]): 10 | Plant response rating, Crabgrass (crabgrass; [8]): 10 | Rape plant response rating (rape; [5]): 0 | Rape plant response rating (rape; [6]): 0 | Plant response rating, Rape (rape; [7]): 2 | Plant response rating, Rape (rape; [8]): 3 | Blackgrass plant response rating (blackgrass; [5]): 2 | Blackgrass plant response rating (blackgrass; [6]): 3 | Plant response rating, Blackgrass (blackgrass; [7]): 9 | Plant response rating, Blackgrass (blackgrass; [8]): 9
